ChEMBL document CHEMBL1201862, “PubChem BioAssay data set” (2004)
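Grown in 96-well plates, cells were treated for 48 hours with each compound at five concentrations. Insufficient inhibition: endpoint recorded as highest concentration tested. At the GI50, growth is halved.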 Active and inactive are the calls of the source. Cut-off read from the data, not from the text of the source: active = GI50 up to about 1.1 µM and inactive = higher.

Tests used:
Experiment in all cases: NCI tumour cell line growth inhibition, 48 h
[1] = system: CAKI-1
[2] = system: HCT-15
[3] = system: SNB-75
[4] = system: HCC 2998
[5] = system: UACC-257
[6] = system: Malme-3M
[7] = system: OVCAR-4
[8] = system: HOP-62
[9] = system: SK-MEL-5
[10] = system: UO-31
[11] = system: M14
[12] = system: DMS-114
[13] = system: SF-268
[14] = system: SN12C
[15] = system: SK-MEL-28
[16] = system: U-251
[17] = system: DMS-273
[18] = system: TK-10
[19] = system: MOLT-4
[20] = system: HT-29
[21] = system: HOP-92
[22] = system: OVCAR-8
[23] = system: CCRF-CEM
[24] = system: ACHN
[25] = system: RXF 393
[26] = system: RXF 631
[27] = system: SF-295
[28] = system: NCI-H522
[29] = system: HCT-116
[30] = system: OVCAR-5
[31] = system: A498
[32] = system: SK-MEL-2
[33] = system: K562
[34] = system: SF-539
[35] = system: UACC-62
[36] = system: LXFL 529
[37] = system: A549
[38] = system: KM-20L2
[39] = system: SNB-78
[40] = system: SNB-19
[41] = system: XF498
[42] = system: NCI-H23
[43] = system: COLO 205
[44] = system: KM12
[45] = system: LOX IMVI
[46] = system: DLD-1
[47] = system: M19-MEL
[48] = system: EKVX
[49] = system: OVCAR-3
[50] = system: IGROV-1
[51] = system: SK-OV-3
[52] = system: RPMI-8226
[53] = system: 786-0
[54] = system: NCI-H460
[55] = system: SW-620
[56] = system: NCI-H226

## O=c1c2ccccc2nc2n1-c1ccccc1SC2
[1]
  GI50: > 100 µM (inactive)
[2]
  GI50: 54.1 µM
[3]
  GI50: 17.7 µM (inactive)
[4]
  GI50: 81.1 µM (inactive)
[5]
  GI50: 39.4 µM (inactive)
[6]
  GI50: 37.8 µM (inactive)
[7]
  GI50: 64.3 µM (inactive)
[8]
  GI50: > 100 µM (inactive)
[9]
  GI50: 30.1 µM (inactive)
[10]
  GI50: 48.2 µM (inactive)
[11]
  GI50: 50.5 µM (inactive)
[12]
  GI50: 34.7 µM (inactive)
[13]
  GI50: 60 µM (inactive)
[14]
  GI50: 51.2 µM (inactive)
[15]
  GI50: 71.3 µM (inactive)
[16]
  GI50: 84.7 µM (inactive)
[17]
  GI50: 47.2 µM (inactive)
[18]
  GI50: > 100 µM (inactive)
[19]
  GI50: 21.4 µM (inactive)
[20]
  GI50: > 100 µM (inactive)
[21]
  GI50: 55.1 µM (inactive)
[22]
  GI50: 38 µM (inactive)
[23]
  GI50: 38.8 µM (inactive)
[24]
  GI50: 54.7 µM (inactive)
[25]
  GI50: 58.3 µM (inactive)
[26]
  GI50: 93.5 µM (inactive)
[27]
  GI50: > 100 µM (inactive)
[28]
  GI50: 20.5 µM (inactive)
[29]
  GI50: 47.2 µM (inactive)
[30]
  GI50: > 100 µM (inactive)
[31]
  GI50: 47.9 µM (inactive)
[32]
  GI50: > 100 µM (inactive)
[33]
  GI50: 36.7 µM (inactive)
[34]
  GI50: > 100 µM (inactive)
[35]
  GI50: 33.7 µM (inactive)
[36]
  GI50: 34.4 µM (inactive)
[37]
  GI50: > 100 µM (inactive)
[38]
  GI50: > 100 µM (inactive)
[39]
  GI50: > 100 µM (inactive)
[40]
  GI50: > 100 µM (inactive)
[41]
  GI50: 30.6 µM (inactive)
[42]
  GI50: 38.1 µM (inactive)
[43]
  GI50: 92.9 µM (inactive)
[44]
  GI50: 29.5 µM (inactive)
[45]
  GI50: > 100 µM (inactive)
[46]
  GI50: 55.5 µM (inactive)
[47]
  GI50: 67.1 µM (inactive)
[48]
  GI50: 25.5 µM (inactive)
[49]
  GI50: 64.9 µM (inactive)
[50]
  GI50: 66.5 µM (inactive)
[51]
  GI50: > 100 µM (inactive)
[52]
  GI50: 24.3 µM (inactive)
[53]
  GI50: > 100 µM (inactive)
[54]
  GI50: 40.2 µM (inactive)
[55]
  GI50: > 100 µM (inactive)

## O=C(/N=C(/Nc1ccccc1)SCS/C(=N\C(=O)c1ccco1)Nc1ccccc1)c1ccco1
[1]
  GI50: 29.4 µM (inactive)
[2]
  GI50: > 100 µM
[3]
  GI50: 16.9 µM (inactive)
[4]
  GI50: 53.7 µM (inactive)
[5]
  GI50: > 100 µM (inactive)
[6]
  GI50: > 100 µM (inactive)
[7]
  GI50: 82.2 µM (inactive)
[8]
  GI50: 19.5 µM (inactive)
[9]
  GI50: 61.5 µM (inactive)
[10]
  GI50: 44.8 µM (inactive)
[11]
  GI50: > 100 µM (inactive)
[12]
  GI50: 52 µM (inactive)
[13]
  GI50: 22.5 µM (inactive)
[14]
  GI50: 84.1 µM (inactive)
[15]
  GI50: > 100 µM (inactive)
[16]
  GI50: 32 µM (inactive)
[17]
  GI50: 37.8 µM (inactive)
[18]
  GI50: 29.4 µM (inactive)
[56]
  GI50: 28 µM (inactive)
[19]
  GI50: > 100 µM (inactive)
[20]
  GI50: > 100 µM (inactive)
[21]
  GI50: 18.7 µM (inactive)
[22]
  GI50: 50.6 µM (inactive)
[23]
  GI50: > 100 µM (inactive)
[24]
  GI50: 38.8 µM (inactive)
[25]
  GI50: 15.1 µM (inactive)
[26]
  GI50: 94.4 µM (inactive)
[27]
  GI50: 26.5 µM (inactive)
[28]
  GI50: 27.4 µM (inactive)
[29]
  GI50: 37.2 µM (inactive)
[30]
  GI50: > 100 µM (inactive)
[31]
  GI50: 27.1 µM (inactive)
[32]
  GI50: 80.2 µM (inactive)
[33]
  GI50: > 100 µM (inactive)
[34]
  GI50: 23.2 µM (inactive)
[35]
  GI50: > 100 µM (inactive)
[36]
  GI50: > 100 µM (inactive)
[37]
  GI50: 41.5 µM (inactive)
[38]
  GI50: > 100 µM (inactive)
[39]
  GI50: 37.1 µM (inactive)
[40]
  GI50: 24 µM (inactive)
[41]
  GI50: 25.4 µM (inactive)
[42]
  GI50: 24.4 µM (inactive)
[43]
  GI50: > 100 µM (inactive)
[44]
  GI50: > 100 µM (inactive)
[45]
  GI50: > 100 µM (inactive)
[46]
  GI50: 44 µM (inactive)
[47]
  GI50: > 100 µM (inactive)
[48]
  GI50: 33.9 µM (inactive)
[49]
  GI50: 40.8 µM (inactive)
[50]
  GI50: 63.4 µM (inactive)
[52]
  GI50: > 100 µM (inactive)
[53]
  GI50: 35.2 µM (inactive)
[54]
  GI50: > 100 µM (inactive)
[55]
  GI50: > 100 µM (inactive)
